The source of these data is US20230099027A1 (priority 2020, published 2023).

This test relates to H1N1 Neth09. The test is classed as cell-based, influenza A virus.

Turning to PEG8, the virucidal result is listed as “did not give virucidal results”.
